The source of these data is patent publication US9119881B2, “Method of synergistically enhancing the therapeutic efficacy and safety of medication through a combination therapy” (priority 2010, dated 2015).

This test has as its target T1, PPAR γ (Mus musculus, UniProt P37238).
T1 construct: expressed in transfected cells; host or cells: 3T3-L1 pre-adipocytes
T1 sequence (P37238 31-505 limits assumed): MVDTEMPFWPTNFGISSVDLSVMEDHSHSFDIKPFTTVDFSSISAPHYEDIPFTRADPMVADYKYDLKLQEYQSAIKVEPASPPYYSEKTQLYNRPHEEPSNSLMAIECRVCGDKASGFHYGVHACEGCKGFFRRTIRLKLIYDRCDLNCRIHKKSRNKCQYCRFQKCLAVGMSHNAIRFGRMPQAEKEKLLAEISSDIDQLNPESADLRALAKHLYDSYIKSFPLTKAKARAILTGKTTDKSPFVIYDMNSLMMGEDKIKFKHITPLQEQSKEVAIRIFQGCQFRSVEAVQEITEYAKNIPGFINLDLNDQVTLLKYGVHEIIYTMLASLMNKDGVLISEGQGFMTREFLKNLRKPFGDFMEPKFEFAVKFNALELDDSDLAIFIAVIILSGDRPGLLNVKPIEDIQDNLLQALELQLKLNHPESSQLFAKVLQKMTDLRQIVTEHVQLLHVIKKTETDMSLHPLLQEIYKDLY
Nature of the test: PPAR γ reporter activity assay in 3T3-L1 preadipocytes. In kind it is cell-based. The conditions noted are these: 6 hrs, Ros 1 μM, ABA 10 μM. The procedure: For 3T3-L1 preadipocytes cells were treated for 6-h with vehicle (DMSO) or Ros (1 μM) with ABA (10 μM), the cAMP-inhibitor 2′5′ dideoxyadenosine (dideoxy, 10 μM), or 14-22 myristolated PKA inhibitor fragment (PKAi, 30 μM). […] Luciferase activity was normalized to pRL activity in the cell extracts and relative luciferase activity was calculated a ratio of the activity in the treatment wells to control wells. Data are represented as mean±standard error.
A pCMX.PPAR γ expression plasmid and a pTKPPRE3x luciferase reporter plasmid driven by the PPRE-containing Acyl-CoA oxidase promoter (kindly provided by Dr. R M. Evans, The Salk Institute, San Diego, Calif.) were purified using Qiagen's Maxi kit (Valencia, Calif.). […] Cells were co-transfected in the […] with 1.5 μg plasmid DNA and 25 ng of pRL reporter control using F-2 transfection reagents (Targeting Systems, Santee, Calif.) according to the manufacturer's protocol. […] Cells were then treated in replicates of 8 with vehicle (DMSO), rosiglitazone (1 or 10 μM; Cayman Chemicals, Arm Arbor, Mich.), or ABA (10 μM; Sigma) with and without 2′5′ dideoxyadenosine (10 μM; Sigma) and 14-22 myristolated PKA inhibitor fragment (PKAi, 30 μM; Sigma). […] Luciferase activity, normalized to pRL activity in the cell extracts was determined by using the Dual Luciferase II reporter assay system (Promega, Madison, Wis.) using a Modulus 96-well luminometer (Turner Biosystems, Sunnyvale, Calif.). All values were normalized to control wells to calculate relative luciferase activity.

Consider `CC1=CC(=O)CC(C)(C)C1(O)/C=C/C(C)=C\C(=O)O` (racemic) [ABA, abscisic acid], for which the “PPAR γ activity” value is “increased”.
